This passage reports IC50 and inhibition in vivo results from patent US20080207617A1, “Quinoline Derivatives and Quinazoline Derivatives Inhibiting Autophosphrylation of Flt3 and Medicinal Compositions Containing the Same” (KIRIN BEER KABUSHIKI KAISHA, priority 2002, published 2008).

Experiment [1] deals with MOLM13. Kind of experiment: Cell growth inhibitory activities on cultured human leukemia cells MOLM-13 (WST-1). It is filed as cell-based. To be noted: Homo sapiens, MOLM-13, 72 h, 3 days culture.
Experiment [2] addresses T1, FLT3 (Homo sapiens, UniProt P36888).
T1 sequence (P36888 with tags, fused parts or gaps INS600HVDFREYEYD): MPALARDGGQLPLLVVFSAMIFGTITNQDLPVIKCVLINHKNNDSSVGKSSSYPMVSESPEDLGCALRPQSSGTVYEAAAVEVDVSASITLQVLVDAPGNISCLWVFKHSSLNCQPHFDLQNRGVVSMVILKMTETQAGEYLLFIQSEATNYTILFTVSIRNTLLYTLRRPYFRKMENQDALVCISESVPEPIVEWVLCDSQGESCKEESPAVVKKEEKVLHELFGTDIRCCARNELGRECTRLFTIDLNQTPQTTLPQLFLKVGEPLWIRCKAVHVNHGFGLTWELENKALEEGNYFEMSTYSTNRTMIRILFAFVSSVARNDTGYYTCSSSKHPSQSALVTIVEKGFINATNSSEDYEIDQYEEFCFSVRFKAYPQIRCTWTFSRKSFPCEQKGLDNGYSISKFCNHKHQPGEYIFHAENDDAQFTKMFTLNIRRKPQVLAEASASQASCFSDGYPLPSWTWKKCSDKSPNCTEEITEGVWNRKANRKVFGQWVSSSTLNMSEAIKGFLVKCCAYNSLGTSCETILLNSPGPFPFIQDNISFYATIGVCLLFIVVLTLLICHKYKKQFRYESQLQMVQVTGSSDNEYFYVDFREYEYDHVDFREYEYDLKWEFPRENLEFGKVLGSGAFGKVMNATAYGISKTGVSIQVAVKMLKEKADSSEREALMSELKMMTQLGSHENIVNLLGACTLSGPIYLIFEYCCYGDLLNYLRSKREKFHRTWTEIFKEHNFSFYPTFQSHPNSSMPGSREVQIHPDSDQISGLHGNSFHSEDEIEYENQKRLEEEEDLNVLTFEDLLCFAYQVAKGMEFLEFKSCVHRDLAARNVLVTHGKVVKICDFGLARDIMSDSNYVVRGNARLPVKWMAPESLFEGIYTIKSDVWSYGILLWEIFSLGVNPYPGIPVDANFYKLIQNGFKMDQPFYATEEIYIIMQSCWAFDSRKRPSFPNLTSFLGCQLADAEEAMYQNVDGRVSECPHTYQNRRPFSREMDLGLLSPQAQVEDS
The experiment in a line: Inhibitory activity against FLT3 autophosphorylation using ELISA method. Format: cell-based. To be noted: MV4-11 cells, 1 hr with compound, read-out: IC50 of FLT3-phosphorylation. The procedure: Pharmacological Test Example 1
Measurement of Inhibitory Activity Against FLT3 Autophosphorylation Using ELISA Method
Human leukemia cells MV4-11 (ATCC number: CRL-9591) were cultured in an IMDM medium containing 10% fetal calf serum (purchased from SIGMA) within a 5% carbon dioxide incubator until 50 to 90% confluent. The harvested cells were seeded into 96-wells, plates, containing an IMDM medium containing 0.1% fetal calf serum, in a 96-well multiscreen plate in an amount of 5.0×10^5 per well, a solution of the test compound in dimethyl sulfoxide was added to each well, and the cultivation was continued at 37° C. for one hr. The medium was removed, followed by washing with phosphate buffered saline. A lysis buffer (60 μl) (20 mM HEPES (pH 7.4), 150 mM NaCl, 0.2% Triton X-100, 10% glycerol, 5 mM sodium orthovanadylate, 5 mM disodium ethylenediaminetetraacetate, and 2 mM Na4P2O7) was then added thereto. The mixture was shaken at 4° C. for 2 hr to prepare a cell extracts.
Separately, phosphate buffered saline (50 μl, pH 7.4) containing 5 μg/ml of anti-phospho-tyrosine antibody (PY20; purchased from Transduction Laboratories) was added to a 96-well microplate for ELISA (Maxisorp; purchased from NUNC), followed by standing at 4° C. overnight to form a solid phase on the wells. After washing of the plate, 250 μl of a blocking solution was added, followed by standing at room temperature for 3 hr to perform blocking. After washing, the whole quantity of the cell extract was transferred to the wells, and the plate was then allowed to stand at 4° C. overnight. After washing, an anti-FLT3 antibody (Flt3/Flk2 (C-20), purchased from Santa Cruz Biotechnology) was allowed to react at room temperature for 2 hr, and, after washing, a peroxidase-labeled anti-rabbit Ig antibody (purchased from Amersham) was allowed to react at room temperature for one hr. After washing, a chromophoric substrate for peroxidase (purchased from Sumitomo Bakelite Co., Ltd.) was added thereto to initiate a reaction. After a suitable level of color development, a reaction termination solution was added to stop the reaction, and the absorbance at 450 nm was measured with a microplate reader. The FLT3-phosphorylation activity for each well was determined by presuming the absorbance without the addition of the medicament to be 100% FLT3-phosphorylation activity and the absorbance with the addition of a large excess of a positive control (Compound 1, 10 μM) to be 0% FLT3-phosphorylation activity. The concentration of the test compound was varied on several levels, the FLT3-phosphorylation inhibitory activity was determined for each case, and the concentration of the test compound necessary for inhibiting 50% of FLT3-phosphorylation (IC50) was calculated.

Experiment [3] deals with MV4-11. Kind of experiment: Cell growth inhibitory test MV4-11 (WST-1). Format: cell-based, human. Conditions: Homo sapiens, MV4-11, 72 h, MV4-11 cells, 3 days culture. The method in brief:
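MV4-11 leukemia cells (3×10^3/well, DMEM + 10% FCS) were cultured 3 days with compound in DMSO at 5% CO2. Growth read by WST-1 absorbance at 450 nm (ref 650 nm), normalized to untreated (100%) and cell-free (0%) wells; IC50 from multiple concentrations.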

For experiment [4], the system named is MOLM13. Kind of experiment: Cell growth inhibitory activity using MTT method (MOLM13). It is filed as cell-based, human. Conditions: Homo sapiens, MOLM-13, 72 h, MOLM13 cells. The procedure:
Pharmacological Test Example 3
Measurement of Cell Growth Inhibitory Activity Using MTT Method
Human leukemia cell line MOLM13 (subdivided from Hayashibara Biochemical Laboratories, Inc.) was cultured in an RPMI medium containing 10% fetal calf serum (purchased from Asahi Techno Glass Corporation) within a 5% carbon dioxide incubator until the cell density reached 50 to 90% of the maximum cell density. These cells were seeded into wells, containing an RPMI medium containing 10% fetal calf serum, in a 96-well flat bottom plate in an amount of […] per well. The amount of the solution of the medium in each well was brought to 100 μl, and a test compound was added thereto to 500 ng, 100 ng, 20 ng, and 4 ng per ml. After culture within an incubator for 72 hr, 10 μl of a 5 mg/ml MTT (3-(4,5-dimethylthiazol-2-yl)-2,5-diphenyl tetrazolium bromide) solution (purchased from SIGMA) was added to the medium, and a reaction was allowed to proceed for 4 hr. Thereafter, 100 μl of a 0.04 N hydrochloric acid-isopropanol solution was added to completely dissolve the resultant MTT formazan crystal. After the dissolution, absorbance at 550 nm was measured using 620 nm as a reference wavelength with a microplate reader (DIGISCAN) (It is regarded that, in the MTT method, the viable cell count is reflected, and linearity is observed in a cell count per well range of 5×10^5 to 2×10^2 cells). After 72 hr, the absorbance of only the medium free from cells was subtracted from the absorbance of the well without the addition of the test compound to determine a value which was presumed to be 100%. On the other hand, the absorbance with the addition of the compound was expressed in terms of % growth.

The subject of experiment [5] is MOLM13. The experiment in a line: Tumor growth inhibitory activities in nude mice xenograft model inoculated with human leukemia cells MOLM13. It is filed as in vivo. Conditions: Mus musculus, MOLM-13, po, 240 h; 50 mg/kg orally once a day, day 10; read-out: TGIR (%) (measurement date). As for the experimental part:
Pharmacological Test Example 5
Tumor Growth Inhibitory Activities in Nude Mice Xenograft Model Inoculated with Human Leukemia Cells
Human leukemia cells MOLM13 (subdivided from Hayashibara Biochemical Laboratories, Inc.) were subcutaneously transplanted into nude mice. […] The test compound suspended or dissolved in 0.5% methylcellulose was orally administered at a dose of 0.1 ml per 10 g body weight once a day for 9 days. For the control group, only vehicle was administered.
The tumor growth inhibition rate (TGIR) was calculated as follows:
The tumor growth inhibition rate (TGIR)=(1−TX/CX)×100
wherein CX represents the volume of tumor at day X for the control group when the tumor volume at the day of the start of the administration (day 1) was presumed to be 1; and TX represents the volume of tumor at day X for test compound administration groups.

Structures can show the parent of a compound that is named as a salt.

`COc1cc2nccc(Oc3ccc(NC(=O)NCCC(C)(C)C)cc3C)c2cc1OC` [Compound 3, 1-[4-(6,7-Dimethoxy-quinolin-4-yloxy)-3-methyl-phenyl]-3-(3,3-dimethyl-butyl)-urea]: the half-maximal inhibitory concentration (IC50) in experiment [1] was determined as 3 nM; in experiment [2], 7 nM; in experiment [3], 2 nM.
For the molecule `COc1cc2nccc(Oc3ccc(NC(=O)NC4CC(C)CC(C)(C)C4)cc3F)c2cc1OC` (stereo not shown) [Compound 15, 1-[4-(6,7-Dimethoxy-quinolin-4-yloxy)-3-fluoro-phenyl]-3-(3,3,5-trimethyl-cyclohexyl)-urea], the IC50 in experiment [1] came to 22 nM; in experiment [4], 9.5 nM; in experiment [3], 11 nM. The inhibition in vivo at 50 mg/kg in experiment [5] amounted to 89.4%.
As for `COc1cc2c(Oc3ccc(NC(=O)NCCC(C)(C)C)cc3)ccnc2cc1OCCN1CCCCC1` [Compound 40, 1-{4-[6-Methoxy-7-(2-piperidin-1-yl-ethoxy)-quinolin-4-yloxy]-phenyl}-3-(3,3-dimethyl-butyl)-urea hydrochloride], the IC50 in experiment [1] stood at 2 nM; in experiment [2], 93 nM; in experiment [3], 1 nM.
